Measured values taken from patent US6524330B1, “Method of ocular treatment” (priority 2000, dated 2003).
Entries after “also recorded” stand apart in the source; their conditions may differ.

Experiments:
[1] = tested on: choriocapillaris; assay: Photodynamic therapy with liposomal hypocrellin A in rabbit eyes, yellow laser (568 nm), fundus observation and fluorescein angiography; type: in vivo, Rabbits (Dutch belted pigmented); settings: for Fluorescein Angiogram 2 hours post PDT / Fluorescein Angiogram 24 hours post PDT: 568 nm, 500 μg/kg i.v. in liposomes
Protocol: (§1) Rabbits (twenty-five Dutch belted pigmented, 2-3 kg body weight), were administered hypocrellin A (Molecular Probes, Eugene, Oreg.) by systemic injection into the ear vein. Animals were anesthetized by intramuscular injection of ketamine hydrochloride (50 mg/kg) and xylazine hydrochloride (5 mg/kg). Pupils were dilated with 2.5% phenylephrine and 0.5% tropicamide.
Hypocrellin A was incorporated into liposomes composed of phosphatidylcholine (PC), phosphatidylglycerol (PG), cholesterol, or dipalmitoyl phosphatidylcholine (DPPC), dipalmitoyl phosphatidylglycerol (DPPG) (Avanti Polar Lipids, Pelham, Ala.), with or without cholesterol, using methods known to one of skill in this art. In general, large unilamellar vesicles (LUV) were formed using the reverse phase evaporation method of Szoka and Papahadjopoulos (Proc. Natl. Acad. Sci. USA 1978; 75:4194-4198). Lipids (100 mg PC, 25 mg PG, and optionally 15 mg cholesterol) and 1 mg hypocrellin A were dissolved in chloroform. The solution was placed in a round flask under rotary evaporation (Buschi Laboratoriums-teenik AG, Flawil, Schewiz) to make a thin film. The dried material was dissolved in 6 ml chloroform and 12 ml ether.
The aqueous phase consisted of 4 ml HEPES buffered saline ([…] NaCI, 2 mM KCI, 10 mM HEPES buffer, pH 7.4, 300 mOsm). This was added to the chloroform/ether solution, the flask was filled with nitrogen gas and subjected to ultrasound at 40° C. for two minutes to form a homogeneous emulsion, which was transferred to a rotary evaporator. At pressures below about 400 mm Hg, the emulsion began to bubble extensively as the organic phase was drawn off. […] The foaming emulsion was vented whenever it neared the top of the flask. Progressively higher vacuum was used to maintain foaming. As the process continued, the foaming decreased. At a pressure of about 100 mm Hg, foaming ceased and the procedure was completed. The process yielded large, negatively charged, unilamellar liposomes with HEPES buffer encapsulated into the aqueous phase and hypocrellin A incorporated into the bilayers of the liposomes. Before injection, the LUV were filtered through 0.8 μm pores.
The hypocrellin preparation was administered as an intravenous bolus into the marginal ear vein. The dose of hypocrellin administered was 500 μg/kg in a volume of about 2 ml. However, doses in the range of about […] may also be administered. Control animals received vehicle (liposomes without hypocrellin A in a saline solution) only.
(§2) After administration of compound, for example, 10-15 minutes after hypocrellin A administration, PDT was initiated upon application of laser irradiation with a dye laser (Coherent, Palo Alto, Calif.). Prior to light application, a lens with a focal length of 25 cm was placed in front of the laser beam to prevent interference with the slit lamp light path and to enlarge the spot size produced by the 500 μm setting of the laser to 2 mm on the retina. A spot size of 2 mm was used throughout. A plano fundus contact lens was placed on the cornea, with methylcellulose gel as a coupler, to null the refraction of the cornea. Animals were positioned in a stereotactic support attached to the slit lamp to maintain precise alignment.
The wavelengths were tested: yellow (568 nm) and red (647 nm). Laser powers were in the range of about 10 mW to about 60 mW. Duration of irradiation was for a minimum of 10 seconds to a maximum of 60 seconds. The photodynamic effect is not only related to the irradiance, but power and duration as well. Fluence (irradiance) is the product of power and duration divided by the spot size, but with a constant spot size, irradiance is a function of power and duration only. Fluence was in the range of 3.2 to 95.5 J/cm^2. […] In one embodiment, the lowest possible power and duration that induce the minimal fluorescein angiographic response is used.
The irradiations were done in the avascular retina, below the optic disc. […]

[2] = tested on: choriocapillaris; assay: Photodynamic therapy with hypocrellin A in rabbit eyes, red laser (647 nm), funduscopy and angiography; type: in vivo, Rabbits (Dutch belted pigmented); settings: 647 nm (red laser); dose of 500 μg/kg systemically; any of the power levels or durations tested
Protocol: as §1
The hypocrellin preparation was administered as an intravenous bolus into the marginal ear vein. […] However, doses in the range of about […] may also be administered. Control animals received vehicle (liposomes without hypocrellin A in a saline solution) only.
as §2, with “alignment. […]” for “alignment.”

[3] = tested on: choriocapillaris
Protocol: Immediately after the second fluorescein examination, eyes were enucleated and fixed in 2% paraformaldehyde and 3% glutaraldehyde for 24 h. The areas of PDT treatment were surgically excised and specimens were dehydrated in ethanol, embedded in resin, subjected to serial sectioning and staining with 1% toluidine blue for light microscopy.

[4] = cited from earlier work
[5] = power 10 mW, duration 10, 20, 30, 40, 50, 60 sec, irradiance 3.2-19.1 J/cm^2, 2 mm spot
[6] = power 20 mW, duration 10, 20, 30, 40, 50 sec, irradiance 6.4-31.8 J/cm^2
[7] = power 20 mW, duration 60 sec, irradiance 38.2 J/cm^2
[8] = power 30 mW, duration 10, 20, 30 sec, irradiance 9.6-28.6 J/cm^2
[9] = power 30 mW, duration 40, 50, 60 sec, irradiance 38.2-57.3 J/cm^2
[10] = power 40 mW, duration 10 sec, irradiance 12.7 J/cm^2
[11] = power 40 mW, duration 20, 30, 40, 50, 60 sec, irradiance 25.4-76.4 J/cm^2
[12] = power 50 mW, duration 10, 20, 30, 40, 50, 60 sec, irradiance 15.9-95.5 J/cm^2
[13] = power 60 mW, duration 10 sec, irradiance 19.1 J/cm^2
[14] = power 60 mW, duration 20 sec, irradiance 38.2 J/cm^2
[15] = power 60 mW, duration 30 sec, irradiance 57.3 J/cm^2

hypocrellin A
retinal changes in the treated area during or immediately after laser irradiation ([1]; 568 nm (yellow laser), treated rabbits): no retinal changes
Fluorescein Angiogram 2 hours post PDT [1, 5]: no effect; also recorded: No response
Fluorescein Angiogram 24 hours post PDT [1, 5]: no effect; also recorded: No response
Fluorescein Angiogram 2 hours post PDT [1, 6]: no effect; also recorded: No response
Fluorescein Angiogram 24 hours post PDT [1, 6]: no effect; also recorded: No response
Fluorescein Angiogram 2 hours post PDT [1, 7]: No response
Fluorescein Angiogram 24 hours post PDT [1, 7]: minimal response; also recorded: Minimal H
Fluorescein Angiogram 2 hours post PDT [1, 8]: No response
Fluorescein Angiogram 24 hours post PDT [1, 8]: No response
Fluorescein Angiogram 2 hours post PDT [1, 9]: No response
Fluorescein Angiogram 24 hours post PDT [1, 9]: fluorescence effect was seen and H
Fluorescein Angiogram 2 hours post PDT [1, 10]: No response
Fluorescein Angiogram 24 hours post PDT [1, 10]: No response
Fluorescein Angiogram 2 hours post PDT [1, 11]: no effect; also recorded: No response
Fluorescein Angiogram 24 hours post PDT [1, 11]: fluorescence effect and H
Fluorescein Angiogram 2 hours post PDT [1, 12]: No response
Fluorescein Angiogram 24 hours post PDT [1, 12]: fluorescence effect was observed and H
Fluorescein Angiogram 2 hours post PDT [1, 13]: No response
Fluorescein Angiogram 24 hours post PDT [1, 13]: response visible on the angiogram and fluorescence effect and H
Fluorescein Angiogram 2 hours post PDT [1, 14]: fluorescence effect was seen and H
Fluorescein Angiogram 24 hours post PDT [1, 14]: fluorescence effect was seen and H
Fluorescein Angiogram 2 hours post PDT [1, 15]: fluorescence effect was seen and H
Fluorescein Angiogram 24 hours post PDT [1, 15]: fluorescence effect was seen and H
funduscopic or angiographic changes [2]: no demonstrable funduscopic or angiographic changes
histologic finding by light microscopy 24 hours after laser irradiation ([3]; all eyes that developed angiographic changes): occlusion of the choriocapillaris
damage to inner or outer retinal layers ([3]; light microscopy 24 hours after laser irradiation): No damage to inner or outer retinal layers
toxicity in the absence of light [4]: non-toxic
